Assays:
Format in all cases: cell-based, human
[1] = tested on: HSC-T6 cells; assay: Western blotting of fibrosis markers in TGF-β-treated hepatic stellate cells; conditions: HSC-T6, 0, 1, 5 and 10 µM added 2 h before TGF-β (5 ng/ml), 24 h; FIGS. 6a, 6b
Description: In addition, levels of α-smooth muscle actin (α-SMA) and extracellular matrix material fibronectin, which are typically used as a fibrosis molecular marker to identify fibrosis of hepatic stellate cells, were measured by western blotting. Two hours before the treatment with TGF-β(5 ng/ml), each of compounds I and II was added at a varying concentration (0, 1, 5 and 10 µM) to the HSC-T6 cells incubated under the conditions described above, and then, the HSC-T6 cells were incubated under 5% CO2, and at a temperature of 37°C. After 24-hour incubation, the HSC-T6 cells were dissolved in a RIPA buffer solution (50 mM Tris-Cl (pH7.4), 1% NP-40, 150 mM NaCl, 1 mM EDTA) including a protease inhibitor (1 mM PMSF, […] aprotinin, […] leupeptin, and 1 mM Na3VO4) to prepare cytoplasm fractions, and 4-12% gradient SDS-PAGE (Invitrogen) was performed on the cytoplasmic fractions to separate proteins. The proteins separated on the SDS-PAGE gel were transferred to a nitrocellulose membrane (BioRad, Hercules, CA, USA) and the membrane was blocked with 5% skim milk. Then, the membrane was treated with an anti-α-SMA antibody (Sigma, U.S.A.), an anti-fibronectin antibody (Santa Cruz, U.S.A.), and an anti-GAPDH antibody (Ab Frontier, Korea). […]

[2] = tested on: IMR-90 cells; assay: Western blotting of fibrosis markers in irradiated lung fibrocytes; conditions: IMR-90, 10 µM, 2 h before 4 Gy radiation, 48 h; FIG. 7c
Description: (§1) In order to identify whether compound I inhibits radiation-induced fibrosis, instead of external stimulation by TGF-β radiation that can internally engogenously increase TGF-β was employed to induce fibrosis. IMR-90 cells were incubated as described in (1) above and the IMR-90 cells were inoculated to a 6 cm plate containing a modified Eagle's medium (MEM) supplemented with 10% FBS serum, 100 units/ml of penicillin, and 100 µg/ml of streptomycin, 1 mM sodium pyruvate, and 0.1 mM non-essential amino acids. Then, compound I at a concentration of 10 µM was added thereto and the IMR-90 cells were incubated for 2 hours, and then, 4 Gy radiation was applied thereto. 48 hours later, the IMR-90 cells were collected. Then, fibrosis makers as described in Example 2 were identified from the IMR-90 cells by western blotting.

[3] = tested on: HSC-T6 cells; assay: Serum-induced proliferation of hepatic stellate cells, CCK-8 assay; conditions: added 2 h before serum, 48 h
Description: HSC-T6 cells, a stable cell line made by professor S.L. Friedman at Mount Sinai in U.S. A., were obtained and used as hepatic stellate cells (HSC), which are employed mainly as a subject for liver fibrosis. HSC-T6 cells were c under 5% CO2 at a temperature of 37°C in a DMEM supplemented with 10% FBS, 100 units/ml of penicillin, and 100 µg/ml of streptomycin. In order to identify whether compounds I and II directly affect proliferation of hepatic stellate cells, the incubation was performed in a serum-free medium for 24 hours and then the culture was treated with 1, 10, and 20 µM of the compounds I and II, 2 hours prior to addition of serum thereto. Subsequently, under the condition described above, the incubation was further performed for 48 hours and then a CCK-8 assay kit was used to measure cell viability. Absorbance was measured at a wavelength of 450 nm by using a spectrophotometer (Labsystems, U.S.A.) to count the number of cells.

[4] = tested on: IMR-90 cells; assay: Collagen Sircol assay in TGF-β-treated lung fibrocytes; conditions: IMR-90, TGF-β (5 ng/ml), 0, 1, 5 and 10 µM; FIG. 7b
Description: (§2) IMR-90 cells, human normal lung fibrocytes, were purchased from American Type Culture Collection (ATCC, U.S.A.), and were incubated under 5% CO2 and at a temperature of 37°C for 24 hours in a modified Eagle's medium (MEM) supplemented with 10% FBS serum, 100 units/ml of penicillin, and 100 µg/ml of streptomycin, 1 mM sodium pyruvate, and 0.1 mM non-essential amino acids. Then, two hours before treatment with TGF-β (5ng/ml), compound I was added to the cell culture at a varying concentration (0, 1, 5 and 10 µM) and then, the IMR-90 cells were incubated for 24 hours. Then, as described in Example 2, western blotting was performed to identify inhibition of differentiation of lung fibrocytes by compound I based on expression levels of α-SMA and fibronectin, which are fibrosis marker molecules. […] Also, in extracellular matrix, the amount of collagen, which is one of important materials regarding fibrosis, was measured according to the specification of the manufacturer by using a collagen Sircol assay kit (Biocolor, England).

[5] = tested on: IMR-90 cells; assay: Western blotting of fibrosis markers in TGF-β-treated lung fibrocytes; conditions: IMR-90, 0, 1, 5 and 10 µM added 2 h before TGF-β (5 ng/ml), 24 h; FIG. 7a
Description: as §2

[6] = tested on: IMR-90 cells; assay: Collagen amount in irradiated lung fibrocytes; conditions: IMR-90, 10 µM, 2 h before 4 Gy radiation, 48 h; FIG. 7d
Description: as §1

**Q.** How did the “expression of α-SMA and fibronectin (fibrosis markers)” value [1] turn out when Cc1cn2c(nc3c2c(=O)n(Cc2ccccc2Cl)c(=O)n3C)[nH]1 [compound I, 3-(2-chlorobenzyl)-1,7-dimethyl-1H-imidazo[2,1-f]purine-2,4(3H,8H)-dion] was run?
**A.** The value was “concentration-dependently reduced”.

**Q.** What about the “expressions of α-SMA and fibronectin” value [2] of the same compound?
**A.** The value was “significantly reduced”.

**Q.** And the “proliferation of hepatic stellate cells” value ([3]; 1, 10 and 20 µM, FIG. 5a)?
**A.** The value was “almost completely blocked”.

**Q.** What about the amount of collagen [4] of the same compound?
**A.** Its amount of collagen is “concentration-dependently reduced the amount of collagen”.

**Q.** What about the “fibrosis in human lung fibrocytes (expression levels of α-SMA and fibronectin)” value [5] of the same compound?
**A.** Its value is “concentration-dependently decreased fibrosis”.

**Q.** What about the amount of collagen [6] of the same compound?
**A.** The amount of collagen was “reduced to a level similar to that in the no-treatment control group”.

**Q.** With Cc1[nH]c2nc3c(c(=O)n(Cc4c(F)cccc4Cl)c(=O)n3C)n2c1C [compound II, 3-(2-chloro-6-fluorobenzyl)-1,6,7-trimethyl-1H-imidazo[2,1-f]purine-2,4(3H,8H)-dion] as the compound, how does the “expression of α-SMA and fibronectin (fibrosis markers)” value [1] read?
**A.** Its value is “significantly reduced fibrosis markers”.

**Q.** What about the inhibition at 1 µM ([3]; Homo sapiens, HSC-T6, 1 µM, FIG. 5b, read-out: proliferation of hepatic stellate cells inhibited) of the same compound?
**A.** Its inhibition at 1 µM is 12%.

**Q.** What about the inhibition at 10 µM ([3]; Homo sapiens, HSC-T6, 10 µM, FIG. 5b, read-out: proliferation of hepatic stellate cells inhibited) of the same compound?
**A.** The inhibition at 10 µM was 25%.

**Q.** What about the inhibition at 20 µM ([3]; Homo sapiens, HSC-T6, 20 µM, FIG. 5b, read-out: proliferation of hepatic stellate cells inhibited) of the same compound?
**A.** The inhibition at 20 µM was 30%.
